Data as given in article PMC6254361, “The properties of Msh2–Msh6 ATP binding mutants suggest a signal amplification mechanism in DNA mismatch repair” (The Journal of Biological Chemistry, 2018).

Biological target: T1, Msh2–Msh6 (Saccharomyces cerevisiae, UniProt P25847+Q03834, Q03834:K988R)
T1 sequence (P25847 1-964): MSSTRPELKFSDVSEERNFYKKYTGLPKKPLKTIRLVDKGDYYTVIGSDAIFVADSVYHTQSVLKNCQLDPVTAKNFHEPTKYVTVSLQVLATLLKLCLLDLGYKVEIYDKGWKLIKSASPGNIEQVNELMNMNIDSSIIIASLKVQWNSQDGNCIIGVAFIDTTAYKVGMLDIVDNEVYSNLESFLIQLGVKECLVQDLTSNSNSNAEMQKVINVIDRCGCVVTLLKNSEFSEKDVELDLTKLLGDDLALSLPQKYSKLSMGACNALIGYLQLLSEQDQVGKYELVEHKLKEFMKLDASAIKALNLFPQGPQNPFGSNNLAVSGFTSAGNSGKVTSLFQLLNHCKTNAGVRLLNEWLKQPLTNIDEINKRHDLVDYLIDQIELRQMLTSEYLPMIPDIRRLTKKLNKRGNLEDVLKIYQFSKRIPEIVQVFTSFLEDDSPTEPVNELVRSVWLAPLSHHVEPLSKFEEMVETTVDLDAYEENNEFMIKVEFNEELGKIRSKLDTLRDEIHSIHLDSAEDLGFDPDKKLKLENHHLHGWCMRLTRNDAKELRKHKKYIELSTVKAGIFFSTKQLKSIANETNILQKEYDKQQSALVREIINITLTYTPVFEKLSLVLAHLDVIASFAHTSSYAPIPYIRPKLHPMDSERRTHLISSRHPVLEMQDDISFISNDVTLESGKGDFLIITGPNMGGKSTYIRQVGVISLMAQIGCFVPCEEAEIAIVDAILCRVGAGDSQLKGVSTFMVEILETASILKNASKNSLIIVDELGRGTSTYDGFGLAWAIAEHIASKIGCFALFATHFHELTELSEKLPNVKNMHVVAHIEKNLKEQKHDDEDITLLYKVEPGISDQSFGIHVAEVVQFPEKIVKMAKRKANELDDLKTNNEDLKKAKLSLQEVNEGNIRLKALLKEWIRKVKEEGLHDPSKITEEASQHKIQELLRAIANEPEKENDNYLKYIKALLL
T1 sequence (Q03834 1-1242 K988R): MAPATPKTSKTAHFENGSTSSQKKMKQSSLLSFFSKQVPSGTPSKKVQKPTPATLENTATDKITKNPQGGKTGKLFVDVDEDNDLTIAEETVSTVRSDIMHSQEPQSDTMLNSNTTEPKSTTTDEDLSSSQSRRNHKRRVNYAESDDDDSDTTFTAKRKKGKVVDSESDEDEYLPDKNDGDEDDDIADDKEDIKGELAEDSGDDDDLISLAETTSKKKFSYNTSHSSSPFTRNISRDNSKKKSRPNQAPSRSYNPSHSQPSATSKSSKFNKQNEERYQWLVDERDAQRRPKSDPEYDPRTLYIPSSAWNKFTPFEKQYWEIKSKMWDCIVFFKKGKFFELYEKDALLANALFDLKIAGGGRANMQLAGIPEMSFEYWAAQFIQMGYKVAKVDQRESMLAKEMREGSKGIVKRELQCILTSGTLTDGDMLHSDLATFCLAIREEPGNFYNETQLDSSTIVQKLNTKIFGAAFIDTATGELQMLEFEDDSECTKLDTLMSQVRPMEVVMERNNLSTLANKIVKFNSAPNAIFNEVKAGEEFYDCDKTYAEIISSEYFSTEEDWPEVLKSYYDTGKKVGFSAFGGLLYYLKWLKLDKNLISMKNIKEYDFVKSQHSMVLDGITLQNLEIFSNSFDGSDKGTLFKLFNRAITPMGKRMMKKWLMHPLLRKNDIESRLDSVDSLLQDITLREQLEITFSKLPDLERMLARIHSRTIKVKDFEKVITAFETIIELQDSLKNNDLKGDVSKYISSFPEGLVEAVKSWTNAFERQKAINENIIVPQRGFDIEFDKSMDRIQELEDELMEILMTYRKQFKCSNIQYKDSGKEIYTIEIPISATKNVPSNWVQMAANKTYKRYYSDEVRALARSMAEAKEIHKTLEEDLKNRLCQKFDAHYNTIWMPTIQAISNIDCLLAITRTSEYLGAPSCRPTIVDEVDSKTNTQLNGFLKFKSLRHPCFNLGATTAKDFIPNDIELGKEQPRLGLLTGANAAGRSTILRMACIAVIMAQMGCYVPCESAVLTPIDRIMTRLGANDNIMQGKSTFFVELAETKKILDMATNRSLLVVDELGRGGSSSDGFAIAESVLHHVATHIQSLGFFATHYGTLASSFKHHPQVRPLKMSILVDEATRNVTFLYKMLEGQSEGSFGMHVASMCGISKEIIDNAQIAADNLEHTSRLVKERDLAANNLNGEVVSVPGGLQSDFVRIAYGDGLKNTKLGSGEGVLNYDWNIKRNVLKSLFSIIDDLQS
Experiment: UV cross-linking of [γ-32P]ATP, SDS-PAGE, phosphorimaging
Format: binding
Settings: labelled compound; no Mg2+, EDTA, pH 8, on ice; Msh2 site at 60 μM ATP, Msh6 site at 1 μM ATP

Nc1ncnc2c1ncn2[C@@H]1O[C@H](COP(=O)(O)OP(=O)(O)OP(=O)(O)O)[C@@H](O)[C@H]1O [ATP]
relative ATP binding: Msh2–Msh6(K988A) and Msh2–Msh6(K988R) mutant complexes had partial ATP binding defects at the Msh2 subunit
